Test results published in patent US20230007838A1, “FUNCTIONALIZED LONG-CHAIN HYDROCARBON MONO- AND DI-CARBOXYLIC ACIDS AND THEIR USE FOR THE PREVENTION OR TREATMENT OF DISEASE” (ESPERVITA THERAPEUTICS, INC., priority 2019, published 2023).

Columns and labels:
[1] = test system: primary hepatocytes (m); test: De novo lipogenesis (DNL) in mouse primary hepatocytes; type: cell-based; conditions: Hepatocyte
[2] = test system: Hepa1-6 cells; test: Cancer cell proliferation (PrestoBlue) in Hepa1-6 cells; type: cell-based, murine; conditions: Hepa1-6 (m), 72 hours
Description: (§1) Human liver cancer cells Hep3B and murine liver cancer cells Hepa1-6, respectively, were seeded at a cell density of 3000 cells/well in 96-well plates using either Eagle's Minimum Essential Medium (Corning) for Hep3B or Dulbecco's Modified Eagle's Medium (DMEM) High Glucose (Gibco) for Hepa1-6 cells, supplemented with 10% fetal bovine serum (FBS, Gibco) and 1% Antibiotic-Antimycotic solution (Thermo-Fisher Scientific). The next day, the cells were treated with 0 (vehicle control), 0.1, 0.5, 1, 5, 10, 30, 50 or 100 μM Compound I-32, I-61, I-1, or III-1 (final concentration of DMSO 0.1%) and were allowed to grow for 72 hours at 37° C. On day 5, 10 μl of PrestoBlue™ Cell Viability Reagent (Invitrogen) was added to each well and the plate was incubated at 37° C. for an additional 1-2 hours.

[3] = test system: Hep3B cells; test: Clonogenicity (colony formation) in Hep3B liver cancer cells; type: cell-based; conditions: Homo sapiens, 168 h, 7 days treatment
Description: (§2) Liver cancer cell lines Hep3B (human) and Hepa1-6 (murine) were maintained in either Eagle's Minimum Essential Medium (Corning) for Hep3B cells or High Glucose DMEM (Gibco) for Hepa1-6 cells, supplemented with 10% FBS (Gibco) and 1% Antibiotic-Antimycotic (Thermo-Fisher Scientific). Each cell line was seeded at 1000 cells/well in 12-well plates. The next day, the media were replaced, and cells were treated with 0 (vehicle control, 0.1% DMSO), 1, 5, 10, 30, 50, or 100 μM Compound I-32, I-61, I-1, or III-1 (final concentration of DMSO 0.1%) for 7 days. On day 9, the media were removed, and cells were fixed with 10% formalin (500 μl) for 10 minutes at room temperature, washed with 1×PBS and stained with crystal violet. After 10 minutes the excess stain was removed by rinsing three times with tap water. The plates were allowed to dry overnight, then the number of colonies (>50 cells) in each well were counted using light microscopy as described previously by Villiani L. A., et al.

[4] = test system: Hepa1-6 cells; test: Clonogenicity (colony formation) in Hepa1-6 liver cancer cells; type: cell-based, murine; conditions: Mus musculus, 168 h; Hepa1-6 (m), 7 days treatment
Description: as §2

[5] = test system: Hep3B cells; test: Cancer cell proliferation (PrestoBlue) in Hep3B cells; type: cell-based, human; conditions: Hep3B (h), 72 hours
Description: as §1

[6] = test system: Hep3B cells; test: Combination study with sorafenib or lenvatinib, proliferation in Hep3B cells; conditions: for Synergistic or additive effect on antiproliferative activity (CompuSyn analysis): in the presence of sorafenib or lenvatinib, FIGS. 8A-8D; for IC50: read-out: IC50 for inhibition of proliferation
Description: (§3) Hep3B (supplied by ATCC) or Hepa1-6 (supplied by ATCC) cells were seeded in 96-well plates at a density of 500 cells/well with complete media. […] Then, cells were incubated in an incubator for 72 h. On day 5, 10 μl of presto blue (Invitrogen, cat # A13261) cell viability reagent was added in each 96-well plate and incubated at 37° C. for 1-2 h. After incubation, fluorescence was measured with an excitation/emission wavelength of 560/590 nm. […] Proliferation IC50 values were calculated using a non-linear regression model in Graph pad Prism 8.

[7] = test system: Hepa1-6 cells; test: Combination study with sorafenib or lenvatinib, proliferation in Hepa1-6 cells
Description: as §3

Structure (SMILES) | IC50 [3] [µM] | IC50 [4] [µM] | IC50 ([6]; Homo sapiens, Hep3B) [µM] | IC50 ([6]; Hep3B cells, in the absence of a compound of the invention, separate experiment (data not shown)) [µM] | IC50 [1] [µM] | Cancer Cell Proliferation % reduction vs control at 100 μM, Mean (Standard Deviation) [2] | Cancer Cell Proliferation % reduction vs control at 100 μM, Mean (Standard Deviation) [5] | Synergistic or additive effect on antiproliferative activity (CompuSyn analysis) ([6]; Hep3B cells) | IC50 ([7]; Mus musculus, Hepa1-6, read-out: IC50 for inhibition of proliferation) [µM] | IC50 ([7]; read-out: IC50 for inhibition of proliferation, Hepa1-6 cells, in the absence of a compound of the invention, separate experiment (data not shown)) [µM]
COc1cc2nccc(Oc3ccc(NC(=O)NC4CC4)c(Cl)c3)c2cc1C(N)=O [lenvatinib, reference compound] | – | – | 0.5 | – | – | – | – | – | 30 | –
CNC(=O)c1cc(Oc2ccc(NC(=O)Nc3ccc(Cl)c(C(F)(F)F)c3)cc2)ccn1 [sorafenib, reference compound] | – | – | – | 3 | – | – | – | – | – | 5

Now from value to compound, other results behind:

IC50 [3] [µM] | IC50 [4] [µM] | IC50 ([6]; Homo sapiens, Hep3B) [µM] | IC50 ([6]; Hep3B cells, in the absence of a compound of the invention, separate experiment (data not shown)) [µM] | Structure (SMILES) | IC50 [1] [µM] | Cancer Cell Proliferation % reduction vs control at 100 μM, Mean (Standard Deviation) [2] | Cancer Cell Proliferation % reduction vs control at 100 μM, Mean (Standard Deviation) [5] | Synergistic or additive effect on antiproliferative activity (CompuSyn analysis) ([6]; Hep3B cells) | IC50 ([7]; Mus musculus, Hepa1-6, read-out: IC50 for inhibition of proliferation) [µM] | IC50 ([7]; read-out: IC50 for inhibition of proliferation, Hepa1-6 cells, in the absence of a compound of the invention, separate experiment (data not shown)) [µM]
53.9 | 55.6 | – | – | CC(C)(CCCCc1ccc(CCCCC(C)(C)C(=O)O)cc1)C(=O)O [Compound I-1, 6,6′-(1,4-phenylene)bis(2,2-dimethylhexanoic acid)] | 12.1 | 25.9 (5.7) % | 41.8 (8.4) % | – | – | –
41.7 | 52.3 | – | – | CC(C)(CCCCc1cccc(CCCCC(C)(C)C(=O)O)c1)C(=O)O [Compound I-32, 6-[3-(5-Carboxy-5-methylhexyl)-phenyl]-2,2-dimethylhexanoic acid] | 8.3 | 18.6 (3.1) % | 30.8 (2.6) % | synergistic inhibition | – | –
57.3 | 73.4 | – | – | CC(C)(CCCc1ccccc1CCCC(C)(C)C(=O)O)C(=O)O [Compound I-61, 5,5′-(1,2-Phenylene)bis(2,2-dimethylpentanoic acid)] | – | 21.8 (8.9) % | 35.7(5.8) % | synergistic inhibition | – | –
55.6 | 61 | – | – | CC(C)(CCCc1ccc(CCCC(C)(C)C(=O)O)cc1)C(=O)O [III-1, 1,4-Bis(4-carboxy-4-methylpentyl)benzene] | – | 15.7 (6.7) % | 29.7 (6.2) % | – | – | –
